Test system: breast tissue
Assay: Mifepristone trial: breast tissue biopsies before and after treatment, DNA methylation (EPIC array), EpiDISH cell type composition and WID-BC-index
Assay type: in vivo, human
Source text: The second set of samples were obtained from the clinical trial “The Effect of a Progesterone Receptor Modulator on Breast Tissue in Women With BRCA-1 and -2 Mutations—a Placebo Controlled RCT” (ClinicalTrials.gov Identifier: NCT01898312; regional ethical review board at Karolinska Institutet permit 2009/144-31/4). Study subjects were healthy premenopausal women aged 18-43 years with regular menstrual cycles lasting 25-35 days and with no contraindications to mifepristone. The main exclusion criteria were: use of any hormonal or intrauterine contraception and pregnancy or breastfeeding 2 months prior to the study; a history of breast cancer or other malignancies and adnexal abnormality upon transvaginal ultrasound examination. All women were instructed to use barrier contraceptive methods throughout the duration of the study.
After signing an informed consent, study subjects were randomised into two groups. One group (i.e. 11 BRCA carriers and 9 controls) was treated with 50 mg mifepristone (one quarter of 200 mg Mifegyne®, Exelgyn, Paris, France) every other day for two months (56 days) starting on the first day of the menstrual cycle. […]
We analysed breast tissue samples from 21 BRCA carriers and 23 healthy controls before and after treatment with either mifepristone or placebo for two months. […]

In the case of `CC#C[C@]1(O)CC[C@H]2[C@@H]3CCC4=CC(=O)CCC4=C3[C@@H](c3ccc(N(C)C)cc3)C[C@@]21C` [mifepristone], the “women with downward trend in the WID-BC-index after treatment” value (breast tissue, after adjustment for fat content, before vs after two months treatment, did not reach statistical significance) is reported as 80% and the “epithelial cell proportion in breast tissue samples after treatment” value (matched BRCA carrier and control groups, before vs after 50 mg every other day for two months, not seen in the placebo group) is reported as “statistically significant decrease”.

— patent publication US20220205049A1, “METHODS OF DETECTING AND PREDICTING BREAST CANCER” (priority 2019, published 2022)
